Earlier results in article PMC5641599 (Molecular Metabolism, 2017).
Like-named read-outs stand apart in the source and are kept apart here.

Key:
MC4R variants [1] = conditions: cited from earlier work
MC4R variants [2] = conditions: cited from earlier work; remark: listed apart in the source

NDP-MSH
cAMP Emax - Ligand no.3 (MC4R variants [1]; MC4R C40R, COS-7 cell line, ref Tarnow P, J Biol Chem, 2003): 118.6 % of WT
cAMP Emax - Ligand no.3 (MC4R variants [1]; MC4R C40R, ref Rong R, Clin Endocrinol, 2006): 87.0 % of WT
cAMP Emax - Ligand no.3 (MC4R variants [1]; MC4R C40Y, COS-7 cell line, ref Hughes DA, Hum Genet, 2009): 103.0 % of WT
cAMP Emax - Ligand no.3 (MC4R variants [1]; MC4R D37G, ref Hughes DA, Hum Genet, 2009): 83.0 % of WT
cAMP Emax - Ligand no.3 (MC4R variants [1]; MC4R F280AfsX12, ref Xiang Z, Biochemistry, 2006): 0.0 % of WT
cAMP Emax - Ligand no.3 (MC4R variants [1]; MC4R I251WfsX34, ref Xiang Z, Biochemistry, 2010): 0.0 % of WT
cAMP Emax - Ligand no.3 (MC4R variants [1]; MC4R L211MfsX6, HEK293, ref Ho G, J Biol Chem, 1999): 0.0 % of WT
cAMP Emax - Ligand no.3 (MC4R variants [1]; MC4R L211MfsX6, ref Xiang Z, Biochemistry, 2006): 0.0 % of WT
cAMP Emax - Ligand no.3 (MC4R variants [1]; MC4R Q43X, ref Alfieri A, Gene, 2010): 0.0 % of WT
cAMP Emax - Ligand no.3 (MC4R variants [1]; MC4R Q307X, COS-7 cell line, ref Reinehr T, Obesity, 2009): 0.0 % of WT
cAMP Emax - Ligand no.3 (MC4R variants [1]; MC4R Q307X, ref Santoro N, BMC Med Genet, 2009): 0.0 % of WT
cAMP Emax - Ligand no.3 (MC4R variants [1]; MC4R R7C, COS-7 cell line, ref Hinney A, J Clin Endocrinol Metab, 2006): 75.0 % of WT
cAMP Emax - Ligand no.3 (MC4R variants [1]; MC4R R7C, ref Fan ZC, J Cell Mol Med, 2009): 102.0 % of WT
cAMP Emax - Ligand no.3 (MC4R variants [1]; MC4R S19AfsX34, ref Alfieri A, Gene, 2010): 0.0 % of WT
cAMP Emax - Ligand no.3 (MC4R variants [1]; MC4R S36T, COS-7 cell line, ref Hughes DA, Hum Genet, 2009): 88.0 % of WT
cAMP Emax - Ligand no.3 (MC4R variants [1]; MC4R T11A, ref Tao YX, J Clin Endocrinol Metab, 2005): 109.0 % of WT
cAMP Emax - Ligand no.3 (MC4R variants [1]; MC4R T246DfsX41, HEK293, ref Ho G, J Biol Chem, 1999): 0.0 % of WT
cAMP Emax - Ligand no.3 (MC4R variants [1]; MC4R VADML88_92del, ref Donohoue PA, J Clin Endocrinol Metab, 2003): 0.0 % of WT
cAMP Emax - Ligand no.3 (MC4R variants [1]; MC4R W16X, COS-7, ref Bolze F, Pharmacogenomics J, 2013): 20.0 % of WT
cAMP Emax - Ligand no.3 (MC4R variants [1]; MC4R Y35C, ref Rong R, Clin Endocrinol, 2006): 105.0 % of WT
cAMP Emax - Ligand no.3 (MC4R variants [1]; MC4R Y35X, ref Xiang Z, Biochemistry, 2006): 0.0 % of WT
Binding Bmax (% of WT) (MC4R variants [2]; MC4R A303P, ref Hohenadel MG, Int J Obes, 2014): 22.4 % of WT
Binding Bmax (% of WT) (MC4R variants [2]; MC4R A303T, ref Tan K, Endocrinology, 2009): 86.6 % of WT
Binding Bmax (% of WT) (MC4R variants [2]; MC4R C84R, HEK293 cell line, ref Huang H, Int J Biol Sci, 2014): 5.0 % of WT
Binding Bmax (% of WT) (MC4R variants [2]; MC4R C84R, ref Fan ZC, J Cell Mol Med, 2009): 0.0 % of WT
Binding Bmax (% of WT) (MC4R variants [2]; MC4R C271Y, HEK293 cell line, ref Huang H, Int J Biol Sci, 2014): 70.0 % of WT
Binding Bmax (% of WT) (MC4R variants [2]; MC4R C271Y, ref Tao YX, Endocrinology, 2003): 0.0 % of WT
Binding Bmax (% of WT) (MC4R variants [2]; MC4R C271Y, ref Xiang Z, Biochemistry, 2006): 6.7 % of WT
Binding Bmax (% of WT) (MC4R variants [2]; MC4R D90N, COS-7 cell line, ref Biebermann H, Diabetes, 2003): 80.0 % of WT
Binding Bmax (% of WT) (MC4R variants [2]; MC4R D90N, ref Xiang Z, Biochemistry, 2010): 108.1 % of WT
Binding Bmax (% of WT) (MC4R variants [2]; MC4R E61K, ref Tan K, Endocrinology, 2009): 39.6 % of WT
Binding Bmax (% of WT) (MC4R variants [2]; MC4R E61K, ref Xiang Z, Biochemistry, 2010): 2.0 % of WT
Binding Bmax (% of WT) (MC4R variants [2]; MC4R E308K, ref Xiang Z, Biochemistry, 2010): 37.8 % of WT
Binding Bmax (% of WT) (MC4R variants [2]; MC4R F51L, ref Tao YX, J Clin Endocrinol Metab, 2005): 108.0 % of WT
Binding Bmax (% of WT) (MC4R variants [2]; MC4R F51L, ref Xiang Z, Biochemistry, 2010): 113.5 % of WT
Binding Bmax (% of WT) (MC4R variants [2]; MC4R G55D, ref Tan K, Endocrinology, 2009): 68.6 % of WT
Binding Bmax (% of WT) (MC4R variants [2]; MC4R G55V, ref Hohenadel MG, Int J Obes, 2014): 55.4 % of WT
Binding Bmax (% of WT) (MC4R variants [2]; MC4R G55V, ref Tan K, Endocrinology, 2009): 128.5 % of WT
Binding Bmax (% of WT) (MC4R variants [2]; MC4R G98R, HEK293 cell line, ref Huang H, Int J Biol Sci, 2014): 0.0 % of WT
Binding Bmax (% of WT) (MC4R variants [2]; MC4R G98R, ref Xiang Z, Biochemistry, 2010): 0.541 % of WT
Binding Bmax (% of WT) (MC4R variants [2]; MC4R I69R, HEK293 cell line, ref Huang H, Int J Biol Sci, 2014): 0.0 % of WT
Binding Bmax (% of WT) (MC4R variants [2]; MC4R I69T, ref Tan K, Endocrinology, 2009): 24.8 % of WT
Binding Bmax (% of WT) (MC4R variants [2]; MC4R I69T, ref Xiang Z, Biochemistry, 2010): 8.1 % of WT
Binding Bmax (% of WT) (MC4R variants [2]; MC4R I102S, ref Roubert P, J Endocrinol, 2010): 23.5 % of WT
Binding Bmax (% of WT) (MC4R variants [2]; MC4R I102S, ref Tao YX, J Clin Endocrinol Metab, 2005): 0.0 % of WT
Binding Bmax (% of WT) (MC4R variants [2]; MC4R I102S, ref Xiang Z, Biochemistry, 2006): 1.6 % of WT
Binding Bmax (% of WT) (MC4R variants [2]; MC4R I102T, ref Larsen LH, J Clin Endocrinol Metab, 2005): 115.0 % of WT
Binding Bmax (% of WT) (MC4R variants [2]; MC4R I102T, ref Roubert P, J Endocrinol, 2010): 51.0 % of WT
Binding Bmax (% of WT) (MC4R variants [2]; MC4R I102T, ref Tao YX, J Clin Endocrinol Metab, 2005): 20.0 % of WT
Binding Bmax (% of WT) (MC4R variants [2]; MC4R I301T, ref Nijenhuis WA, J Biol Chem, 2003): 10.0 % of WT
